# Results taken from PMC5951580, “The effect of acylation with fatty acids and other modifications on HLA class II:peptide binding and T cell stimulation for three model peptides” (PLoS ONE, 2018).
# Assays:
# [1] = system: PBMCs from healthy donors; assay: Two-week re-stimulation T cell assay with IFN-γ, IL-5 and IL-10 fluorospot; assay type: cell-based, human; details: for Frequency of responding donors (all cytokines) / Frequency of responding donors compared to the non-acylated peptide (in words) / Magnitude of the response (SFC, all cytokines) compared to the non-acylated peptide (in words): peptide 50 μg/ml, IFN-γ/IL-5/IL-10 fluorospot, n = 22; for Frequency of responding donors (all cytokines): 14 days stimulation with IL-2, re-stimulation 20h, one positive hit for one cytokine equals a positive donor; for Frequency of responding donors compared to the non-acylated peptide (in words) / Magnitude of the response (SFC, all cytokines) compared to the non-acylated peptide (in words): re-stimulation
# [2] = human, in vivo; cited from earlier work
# [3] = system: HLA-DR alleles; set-up: species or system human; details: 15 HLA-DR alleles analyzed, IC50 of 1000 nM as binding threshold
# [4] = target: HLA-DQA1*01:02/B1*06:02 (Homo sapiens, UniProt P01909+P01920, A157G/A45G/C70R/E118A/E183D/E77G/F83G/G63E/H151Q/H199R/H252R/H253Q/I129T/I235V/I88M/INS77G/K197Q/L117V/L119F/L178F/L71W/L74F/L85Q/L91A/L98M/N214S/P87R/Q116E/Q76K/R102G/R240Q/R75S/R78G/S102Y/S185I/S41F/S97I/T121G/T122I/T172A/T86R/V229M/V68A/V73E/Y34C/Y41F/Y58L); assay type: binding; details: threshold IC50 1000 nM
# HLA-DQA1*01:02/B1*06:02, sequence (P01920 33-261 with the stated changes limits assumed, other chains not shown): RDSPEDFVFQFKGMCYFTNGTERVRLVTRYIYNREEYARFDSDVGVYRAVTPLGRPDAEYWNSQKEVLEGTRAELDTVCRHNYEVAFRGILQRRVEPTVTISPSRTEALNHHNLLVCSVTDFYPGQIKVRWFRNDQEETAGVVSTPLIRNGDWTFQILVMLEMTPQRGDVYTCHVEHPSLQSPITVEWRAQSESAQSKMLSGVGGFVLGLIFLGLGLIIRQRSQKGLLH
# [5] = cited from earlier work
substance,measurement,setting,value
Peptide 12: Exendin-4 acylated with C18 via Oeg-Oeg-LγGlu at C-terminus,Frequency of responding donors (all cytokines),[1],10%
"Peptide 7: Exendin-4 (1–39), 39-aa peptide used for the treatment of diabetes mellitus type 2, non-acylated",Frequency of responding donors (all cytokines),[1],40%
same,Patients treated with the compound that show an immunogenic response,[2],40–60%
Peptide 13: Exendin-4 acylated with 2 x C18 via Oeg-Oeg-LγGlu at 12 (K) + 27 (K),Frequency of responding donors compared to the non-acylated peptide (in words),[1]; 14 days stimulation,decreased
same,"Magnitude of the response (SFC, all cytokines) compared to the non-acylated peptide (in words)",[1]; 14 days stimulation,decreased
PKYVKQNTLKLAT [Peptide 1],HLA-DR alleles that bound the peptide with an affinity of 1000 nM or better (number/number analyzed),[3],12/15
same,HLA-DR alleles that bound the peptide with an affinity of 1000 nM or better,"[3]; radiolabeled peptide competition, two-day incubation, three or more independent experiments",80%
same,HLA-DQA1*01:02/B1*06:02 binding capacity (binder / non-binder),[4],non-binder
same,"Cytokine response (IFN-γ, IL-5, IL-10 secreting cells) in words","[1]; peptide 5 μg/ml, 14 days stimulation, re-stimulation 20 hours, fluorospot, seven donors","significant numbers of IFN-γ, IL-5 and IL-10 producing cells"
same,Donors with an immunogenic response,[5],approximately 30%
"QLLDRGATALVLQVLNVPRLMTQD [Peptide 14, Vatreptacog alfa (285–309) peptide fragment, 25-aa, non-acylated]",Frequency of responding donors (all cytokines),[1],45%
Peptide 11: Exendin-4 acylated with C18 via Oeg-Oeg-LγGlu at 27 (K),Frequency of responding donors (all cytokines),[1],None
Peptide 10: Exendin-4 acylated with C18 via Oeg-Oeg-LγGlu at 20 (WT R to K),Frequency of responding donors compared to the non-acylated peptide (in words),[1]; 14 days stimulation,further decreases
same,"Magnitude of the response (SFC, all cytokines) compared to the non-acylated peptide (in words)",[1]; 14 days stimulation,decreased magnitudes
